According to the supplement of paper PMC10331698:
± gives the standard deviation of the averaged measurements.

Experiments:
Test in all cases: level (log10 ratio to DMSO vehicle control); higher = higher biomarker level / cell amount than vehicle control
Details in all cases: in DMSO
Perfluoro-1-iodohexane = compound: FC(F)(F)C(F)(F)C(F)(F)C(F)(F)C(F)(F)C(F)(F)I [Perfluoro-1-iodohexane]
Description: (§1)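 BioMAP Diversity Plus panel of 12 human primary cell co-culture systems (3C, 4H, LPS, SAg, BT, BF4T, BE3C, CASM3C, HDF3CGF, KF3CT, MyoF, Mphg). Compounds were added 1 h before stimulation and left for 24 h (MyoF 48 h; BT 72 h for soluble read-outs or 6 d for IgG). Biomarkers were read by ELISA, cytotoxicity by SRB, PBMC viability and proliferation by Alamar Blue. Each well value was divided by the mean of 8 DMSO control wells on the same plate and log10 transformed; duplicate blinded samples were tested at 4 concentrations.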

[1] = compound: FC(F)(F)C(F)(F)C(F)(F)C(F)(F)C(F)(F)CCI [1-Iodo-1H,1H,2H,2H-perfluoroheptane]
Description: as §1

Perfluorobutanoic acid = compound: O=C(O)C(F)(F)C(F)(F)C(F)(F)F [Perfluorobutanoic acid]
Description: as §1

Perfluoropropanoic acid = compound: O=C(O)C(F)(F)C(F)(F)F [Perfluoropropanoic acid]
Description: as §1

[2] = compound: O=C(O)C(F)(F)OC(F)(F)C(F)(F)OC(F)(F)F [Perfluoro-3,6-dioxaheptanoic acid]
Description: as §1

[3] = compound: OCC(F)(F)OC(F)(F)C(F)(F)OC(F)(F)CO [1H,1H,8H,8H-Perfluoro-3,6-dioxaoctane-1,8-diol]
Description: as §1

[4] = compound: OCCC(F)(F)C(F)(F)C(F)(F)C(F)(F)C(F)(F)C(F)(F)F [6:2 Fluorotelomer alcohol]
Description: as §1

| Test System | level (log10) (Perfluoro-1-iodohexane; 6700 nM) | level (log10) (Perfluoro-1-iodohexane; 20000 nM) | level (log10) (Perfluoro-1-iodohexane; 60000 nM) | level (log10) ([1]; 6700 nM) | level (log10) ([1]; 20000 nM) | level (log10) ([1]; 60000 nM) | level (log10) (Perfluorobutanoic acid; 6700 nM) | level (log10) (Perfluorobutanoic acid; 20000 nM) | level (log10) (Perfluorobutanoic acid; 60000 nM) | level (log10) (Perfluoropropanoic acid; 6700 nM) | level (log10) (Perfluoropropanoic acid; 20000 nM) | level (log10) (Perfluoropropanoic acid; 60000 nM) | level (log10) ([2]; 6700 nM) | level (log10) ([2]; 20000 nM) | level (log10) ([2]; 60000 nM) | level (log10) ([3]; 6700 nM) | level (log10) ([3]; 20000 nM) | level (log10) ([3]; 60000 nM) | level (log10) ([4]; 6700 nM) | level (log10) ([4]; 20000 nM) |
| --- | --- | --- | --- | --- | --- | --- | --- | --- | --- | --- | --- | --- | --- | --- | --- | --- | --- | --- | --- | --- |
| MyoF:CXCL8/IL-8 | 0.021 ± 0.041 | 0.023 ± 0.041 | 0.0385 ± 0.028 | -0.0015 ± 0.019 | 0.028 ± 0.018 | 0.043 ± 0.038 | -0.03 ± 0.1 | -0.0355 ± 0.073 | 0.025 ± 0.024 | -0.0055 ± 0.029 | -0.004 ± 0.085 | 0.022 ± 0.075 | -0.0255 ± 0.08 | -0.0035 ± 0.03 | 0.0435 ± 0.019 | 0.006 ± 0.11 | 0.0205 ± 0.088 | 0.0365 ± 0.069 | 0.0185 ± 0.032 | -0.0045 ± 0.0021 |
| MyoF:Collagen I | -0.0295 ± 0.019 | -0.062 ± 0.04 | -0.246 ± 0.094 | -0.0065 ± 0.012 | 0.007 ± 0.0042 | 0.0375 ± 0.0035 | 0.0075 ± 0.011 | 0.005 ± 0.042 | 0.0025 ± 0.012 | -0.0205 ± 0.011 | -0.0075 ± 0.026 | 0.0255 ± 0.047 | -0.0185 ± 0.039 | -0.002 ± 0.0099 | -0.0155 ± 0.023 | 0.0045 ± 0.021 | -0.0165 ± 0.052 | -0.015 ± 0.04 | -0.0015 ± 0.0064 | -0.003 ± 0.011 |
| MyoF:Collagen III | -0.0225 ± 0.0064 | -0.039 ± 0.0057 | -0.132 ± 0.036 | 0.0085 ± 0.029 | 0.0185 ± 0.0092 | 0.041 ± 0.013 | -0.0155 ± 0.016 | 0.0025 ± 0.011 | -0.0145 ± 0.025 | 0.0165 ± 0.012 | 0.0135 ± 0.016 | 0.0385 ± 0.015 | -0.025 ± 0.0014 | -0.001 ± 0.017 | 0.027 ± 0.038 | -0.0225 ± 0.015 | 0.001 | -0.012 ± 0.028 | 0.003 ± 0.016 | -0.005 ± 0.0014 |
| MyoF:Collagen IV | -0.033 ± 0.027 | -0.031 ± 0.028 | 0.193 ± 0.013 | 0.03 ± 0.0071 | 0.0715 ± 0.0035 | 0.072 ± 0.028 | -0.032 ± 0.051 | -0.0215 ± 0.04 | -0.0055 ± 0.018 | 0.0075 ± 0.0021 | -0.007 ± 0.011 | 0.0145 ± 0.019 | -0.011 ± 0.0085 | 0.0045 ± 0.013 | 0.0015 ± 0.021 | -0.021 ± 0.013 | -0.0125 ± 0.015 | 0.0065 ± 0.032 | -0.0005 ± 0.013 | -0.002 ± 0.013 |
| MyoF:Decorin | 0.0185 ± 0.011 | 0.023 ± 0.0042 | -0.012 ± 0.044 | -0.012 ± 0.0028 | -0.022 ± 0.023 | -0.007 ± 0.034 | -0.013 ± 0.0014 | -0.0105 ± 0.039 | -0.0025 ± 0.00071 | -0.0255 ± 0.073 | 0.002 ± 0.11 | 0.046 ± 0.089 | -0.0075 ± 0.03 | -0.013 ± 0.017 | 0.012 ± 0.04 | -0.0155 ± 0.011 | 0.003 ± 0.0071 | 0.02 ± 0.02 | -0.0055 ± 0.0021 | 0.0085 ± 0.011 |
| MyoF:MMP-1 | 0.036 ± 0.0071 | 0.451 ± 0.19 | 0.661 ± 0.0028 | -0.013 ± 0.038 | -0.0185 ± 0.037 | 0.037 ± 0.011 | -0.027 ± 0.0028 | -0.0135 ± 0.016 | -0.0005 ± 0.04 | -0.0675 ± 0.11 | -0.0565 ± 0.06 | 0.05 ± 0.095 | -0.0045 ± 0.0021 | -0.0545 ± 0.013 | 0.041 ± 0.054 | -0.022 ± 0.028 | -0.0115 ± 0.011 | 0.024 ± 0.058 | 0 ± 0.016 | -0.0035 ± 0.005 |
| MyoF:PAI-I | -0.001 ± 0.0028 | -0.025 ± 0.0057 | -0.12 ± 0.054 | -0.0005 ± 0.00071 | 0.0005 ± 0.00071 | -0.002 ± 0.0042 | -0.008 ± 0.0014 | -0.0055 ± 0.018 | -0.0105 ± 0.013 | -0.0035 ± 0.013 | -0.0165 ± 0.0035 | -0.0035 ± 0.012 | -0.019 ± 0.038 | -0.0245 ± 0.03 | -0.0275 ± 0.025 | -0.008 ± 0.0099 | -0.008 ± 0.017 | 0.0025 ± 0.0078 | 0.002 ± 0.0028 | 0.007 ± 0.0042 |
| MyoF:SRB | -0.0405 ± 0.05 | -0.263 ± 0.16 | -0.712 ± 0.15 | 0.001 ± 0.0099 | 0.0085 ± 0.015 | 0.0085 ± 0.025 | 0.0005 ± 0.0035 | -0.001 ± 0.0085 | -0.0125 ± 0.0035 | 0.0015 ± 0.012 | 0.0005 ± 0.011 | -0.0015 ± 0.0092 | -0.0055 ± 0.0035 | -0.0015 ± 0.00071 | 0.004 ± 0.0085 | -0.0045 ± 0.00071 | -0.001 ± 0.0014 | -0.017 ± 0.013 | -0.002 ± 0.0085 | 0 ± 0.0028 |
| MyoF:TIMP-1 | 0.036 ± 0.0085 | 0.0395 ± 0.011 | -0.058 ± 0.0014 | 0.0095 ± 0.0064 | -0.009 ± 0.0028 | -0.038 ± 0.025 | -0.039 ± 0.055 | -0.02 ± 0.02 | 0.0035 ± 0.0092 | 0.0645 ± 0.077 | 0.05 ± 0.047 | 0.0465 ± 0.12 | -0.0305 ± 0.097 | -0.006 ± 0.079 | -0.001 ± 0.044 | -0.0015 ± 0.036 | 0.038 ± 0.025 | 0.052 ± 0.03 | 0.002 ± 0.04 | 0.0085 ± 0.047 |
| MyoF:alpha-SM Actin | -0.073 ± 0.021 | -0.173 ± 0.086 | -0.38 ± 0.0092 | -0.0265 ± 0.029 | -0.003 ± 0.018 | -0.009 ± 0.0071 | 0.006 ± 0.037 | 0.003 ± 0.031 | 0.024 ± 0.058 | -0.031 ± 0.035 | -0.013 ± 0.017 | 0.011 ± 0.0057 | -0.013 ± 0.0071 | -0.027 ± 0.034 | -0.0095 ± 0.018 | 0.003 ± 0.0057 | 0.013 ± 0.017 | 0.004 ± 0.018 | -0.001 ± 0.018 | 0.0095 ± 0.026 |
| MyoF:bFGF | -0.0085 ± 0.0064 | -0.002 ± 0.0042 | 0.0235 ± 0.036 | 0.0005 ± 0.0078 | 0.005 ± 0.011 | 0.046 ± 0.013 | 0.0025 ± 0.0078 | 0.0095 ± 0.0078 | 0.0155 ± 0.0035 | -0.0175 ± 0.016 | 0.01 ± 0.0028 | 0.015 ± 0.038 | -0.021 ± 0.023 | 0.0045 ± 0.023 | -0.0095 ± 0.021 | -0.001 ± 0.016 | 0.0075 ± 0.011 | 0.004 ± 0.0057 | 0.0015 ± 0.005 | -0.0085 ± 0.0035 |
| lMphg:CCL2/MCP-1 | -0.021 ± 0.0099 | 0.0145 ± 0.032 | -0.003 ± 0.025 | -0.005 ± 0.021 | -0.027 ± 0.016 | -0.037 ± 0.0071 | -0.0205 ± 0.021 | -0.0165 ± 0.018 | 0.0135 ± 0.022 | -0.021 ± 0.017 | -0.0045 ± 0.0064 | 0.002 ± 0.013 | 0.0035 ± 0.00071 | -0.006 ± 0.0099 | 0 ± 0.0042 | -0.0115 ± 0.0035 | -0.0145 ± 0.012 | 0.0155 ± 0.012 | -0.019 ± 0.0042 | -0.025 ± 0.016 |
| lMphg:CCL3/MIP-1alpha | 0.033 ± 0.031 | 0.023 ± 0.0042 | 0.0285 ± 0.033 | 0.0165 ± 0.032 | 0.003 ± 0.021 | 0.0185 ± 0.08 | -0.0075 ± 0.00071 | -0.0115 ± 0.018 | 0.0355 ± 0.047 | -0.0105 ± 0.023 | -0.0235 ± 0.0021 | 0.0115 ± 0.013 | -0.0185 ± 0.026 | -0.0065 ± 0.012 | -0.0065 ± 0.019 | -0.004 ± 0.04 | -0.0025 ± 0.022 | 0.0215 ± 0.029 | -0.0295 ± 0.0064 | -0.0295 ± 0.021 |
| lMphg:CD40 | -0.011 ± 0.0071 | -0.0265 ± 0.0035 | -0.0375 ± 0.013 | -0.004 ± 0.0042 | -0.008 ± 0.013 | -0.058 ± 0.02 | -0.049 ± 0.11 | -0.025 ± 0.038 | 0.023 ± 0.068 | -0.0045 ± 0.021 | -0.0145 ± 0.023 | 0.004 ± 0.0028 | -0.0125 ± 0.0035 | 0.0065 ± 0.028 | -0.0055 ± 0.036 | -0.015 ± 0.02 | -0.0845 ± 0.0035 | -0.0265 ± 0.0035 | -0.029 ± 0.0057 | -0.0435 ± 0.025 |
| lMphg:CD62E/E-Selectin | 0.005 ± 0.0042 | 0.018 ± 0.02 | 0.0305 ± 0.033 | -0.021 ± 0.067 | -0.0215 ± 0.018 | -0.028 ± 0.0028 | 0.0155 ± 0.036 | 0.027 ± 0.041 | 0.0175 ± 0.023 | -0.008 ± 0.0057 | -0.004 ± 0.0099 | 0.0385 ± 0.0035 | 0.0105 ± 0.0021 | 0.003 ± 0.017 | 0.061 | -0.0235 ± 0.019 | 0.004 ± 0.033 | -0.003 ± 0.03 | -0.0545 ± 0.011 | 0.0005 ± 0.043 |
